{
  "source": "paper PMC6934184",
  "about": "“Selective DNA-PKcs inhibition extends the therapeutic index of localized radiotherapy and chemotherapy” (The Journal of Clinical Investigation, 2019)",
  "target": "T1, EGFR (ErbB1) d746-750 (Homo sapiens, UniProt P00533, DEL746-750)",
  "T1 construct": "purchased Thermo Fisher Scientific (Life Technologies) SelectScreen",
  "T1 sequence (P00533 with tags, fused parts or gaps DEL746-750 limits assumed)": "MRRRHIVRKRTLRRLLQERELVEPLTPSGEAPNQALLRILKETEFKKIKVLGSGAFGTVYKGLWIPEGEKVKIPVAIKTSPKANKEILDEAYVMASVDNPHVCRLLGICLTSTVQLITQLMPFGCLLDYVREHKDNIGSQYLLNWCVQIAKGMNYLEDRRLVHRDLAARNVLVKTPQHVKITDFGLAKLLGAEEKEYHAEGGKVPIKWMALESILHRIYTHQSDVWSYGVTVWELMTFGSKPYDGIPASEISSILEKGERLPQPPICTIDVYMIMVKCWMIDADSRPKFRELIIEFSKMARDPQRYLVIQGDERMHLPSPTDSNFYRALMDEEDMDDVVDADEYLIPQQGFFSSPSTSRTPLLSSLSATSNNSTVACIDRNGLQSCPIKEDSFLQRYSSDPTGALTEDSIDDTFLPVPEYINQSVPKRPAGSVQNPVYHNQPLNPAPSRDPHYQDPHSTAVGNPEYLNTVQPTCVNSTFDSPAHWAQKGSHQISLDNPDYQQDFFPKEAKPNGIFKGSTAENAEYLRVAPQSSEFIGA",
  "assay": "SelectScreen LanthaScreen",
  "format": "binding",
  "conditions": "1 µM",
  "in_short": "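SelectScreen broad panel; activity (Z'LYTE, Adapta) plus binding formats. ATP: Km app for CSF1R Z'LYTE; 10 for CAMK1 Adapta. Readout = % per kinase.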",
  "data": [
    {"compound": "CN(C(=O)CN1CCOCC1)c1ccc2sc3c(-c4cccc5c(=O)cc(N6CC7CCC(C6)O7)oc45)cccc3c2c1", "note": "[NU5455]", "values": [
      {"measurement": "% displacement", "result": 5.8, "unit": "%"}
    ]}
  ]
}
